In ChEMBL document CHEMBL1201862, “PubChem BioAssay data set” (2004):
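These data come from cells grown in 96-well plates and exposed to compound for 48 hours at five concentrations. GI50 = concentration required for 50% inhibition of growth.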 Active and inactive are the calls of the source. No stated cut-off is given here; in the data, active = GI50 up to about 1.1 µM and inactive = higher.

How the values were obtained:
Test in all cases: inhibition of tumour cell growth, NCI panel, 48 h
786-0 = system: 786-0
CAKI-1 = system: CAKI-1
COLO 205 = system: COLO 205
HCT-116 = system: HCT-116
HCT-15 = system: HCT-15
Hs-578T = system: Hs-578T
K562 = system: K562
KM12 = system: KM12
MDA-MB-231 = system: MDA-MB-231
NCI-H226 = system: NCI-H226
NCI/ADR-RES = system: NCI/ADR-RES
OVCAR-4 = system: OVCAR-4
SF-268 = system: SF-268
SK-MEL-5 = system: SK-MEL-5
SNB-19 = system: SNB-19
T47D = system: T47D
U-251 = system: U-251
UO-31 = system: UO-31
HL-60 = system: HL-60
CCRF-CEM = system: CCRF-CEM

SMILES	GI50 (786-0)	GI50 (CAKI-1)	GI50 (COLO 205)	GI50 (HCT-116)	GI50 (HCT-15)	GI50 (Hs-578T)	GI50 (K562)	GI50 (KM12)	GI50 (MDA-MB-231)	GI50 (NCI-H226)	GI50 (NCI/ADR-RES)	GI50 (OVCAR-4)	GI50 (SF-268)	GI50 (SK-MEL-5)	GI50 (SNB-19)	GI50 (T47D)	GI50 (U-251)	GI50 (UO-31)	GI50 (HL-60)	GI50 (CCRF-CEM)
c1cc(CCN2CCCCC2)ccn1	> 100 µM (inactive)	> 100 µM (inactive)	> 100 µM (inactive)	> 100 µM (inactive)	> 100 µM	> 100 µM (inactive)	> 100 µM (inactive)	> 100 µM (inactive)	> 100 µM (inactive)	> 100 µM (inactive)	> 100 µM (inactive)	> 100 µM (inactive)	> 100 µM (inactive)	> 100 µM (inactive)	> 100 µM (inactive)	> 100 µM (inactive)	> 100 µM (inactive)	> 100 µM (inactive)		
Cn1c2c(c3ccccc31)CCN1OCC=C[C@@H](C(=O)O)[C@@H]21	> 100 µM (inactive)	> 100 µM (inactive)	> 100 µM (inactive)	> 100 µM (inactive)	> 100 µM	31 µM (inactive)		> 100 µM (inactive)	> 100 µM (inactive)	> 100 µM (inactive)	> 100 µM (inactive)	> 100 µM (inactive)	> 100 µM (inactive)	> 100 µM (inactive)	> 100 µM (inactive)	> 100 µM (inactive)	> 100 µM (inactive)	51.3 µM (inactive)	> 100 µM (inactive)	
CN(C)CCNc1nc2c(no[n+]2[O-])c2ccccc12.[O-][Cl+3]([O-])([O-])O	18.7 µM (inactive)	26.1 µM (inactive)	16.9 µM (inactive)	12.4 µM (inactive)	18 µM	40.6 µM (inactive)	28.8 µM (inactive)	21.1 µM (inactive)	14.8 µM (inactive)	16.1 µM (inactive)	31.2 µM (inactive)	30.4 µM (inactive)	4.42 µM (inactive)	15.2 µM (inactive)	20.7 µM (inactive)	57.9 µM (inactive)	31.5 µM (inactive)	19.5 µM (inactive)		30.3 µM (inactive)
O=c1onc2n1-c1ccc(Cl)cc1C(=S)N1CSCC21 (centres undefined)	23.1 µM (inactive)	64.1 µM (inactive)	18.4 µM (inactive)	13.7 µM (inactive)	26.6 µM	22.2 µM (inactive)	25.4 µM (inactive)	29.4 µM (inactive)	19.5 µM (inactive)	28.1 µM (inactive)	17.3 µM (inactive)	59.2 µM (inactive)	25.8 µM (inactive)	19.7 µM (inactive)	22.3 µM (inactive)	35.7 µM (inactive)	18.2 µM (inactive)	59 µM (inactive)		25.9 µM (inactive)
C[n+]1c2ccccc2c(C(=O)Nc2ccc(S(=O)(=O)Nc3ncccn3)cc2)c2ccccc21	> 100 µM (inactive)	> 100 µM (inactive)	> 100 µM (inactive)	72.6 µM (inactive)	> 100 µM	> 100 µM (inactive)	97.5 µM (inactive)	> 100 µM (inactive)	71.9 µM (inactive)	37.4 µM (inactive)	32.5 µM (inactive)	> 100 µM (inactive)	> 100 µM (inactive)	58.9 µM (inactive)	> 100 µM (inactive)	> 100 µM (inactive)	> 100 µM (inactive)	75.5 µM (inactive)		
Cc1cc(C(C)(C)C)cc(CNC2CCCCC2)c1O	16.2 µM (inactive)	16.4 µM (inactive)	17.3 µM (inactive)	15.4 µM (inactive)	16.6 µM	20.2 µM (inactive)	21.7 µM (inactive)	19.9 µM (inactive)	18 µM (inactive)		16.4 µM (inactive)	19.5 µM (inactive)	16.1 µM (inactive)	17 µM (inactive)	16.6 µM (inactive)	14.8 µM (inactive)	16.3 µM (inactive)	14.9 µM (inactive)		17.9 µM (inactive)
Cc1n[n+](CC(=O)c2ccccc2)c2sc(N)nn12	> 100 µM (inactive)	> 100 µM (inactive)	> 100 µM (inactive)	> 100 µM (inactive)	> 100 µM	> 100 µM (inactive)	> 100 µM (inactive)	> 100 µM (inactive)	> 100 µM (inactive)	> 100 µM (inactive)	> 100 µM (inactive)	> 100 µM (inactive)	> 100 µM (inactive)	72.3 µM (inactive)	> 100 µM (inactive)	> 100 µM (inactive)	> 100 µM (inactive)	> 100 µM (inactive)		> 100 µM (inactive)
